Series [1] has as its system bilateral knee osteoarthritis. Kind of series: Agmatine Administration Case 1: self-treatment and self-rating of knee osteoarthritis symptoms (WOMAC Index, VAS). In kind it is in vivo, human. Particulars: for VAS Score / WOMAC (% Total Score): treatment duration 12-14 months. From the text: Two study participants, each suffering from bilateral knee osteoarthritis, were consecutively self-treated as shown in the following Table 1: Treatment started with acetaminophen (as TYLENOL®, considered standard drug treatment) used as a rescue medication for the duration of their symptoms, 12 or 14 months as needed, followed by a 12-week treatment period of acetaminophen plus agmatine (taken as the G-AGMATINE® brand of agmatine sulfate). The participants self-rated their OA symptoms according to the WOMAC (Western Ontario and McMaster Universities Osteoarthritis) Index and according to the Visual Analog (pain) Scale (VAS). They had bilateral symptoms of mild-to-moderate chronic, frequent knee pain typical of knee OA according to WOMAC, score range of >25 and <100. Table 1 presents a summary of the participants' characteristics and treatment assessment at the indicated follow-up times. For the entire acetaminophen-only treatment, the dosage was 500 milligrams per caplet, and the frequency was two caplets every six hours, as needed (i.e., 1000 mg per six-hour period). For the acetaminophen plus agmatine regimen, the participants' initial dosage of acetaminophen was 500 milligrams per caplet with an initial dosage of agmatine of 450 milligrams per capsule. While the frequency of acetaminophen dosage for both participants remained two caplets every six hours, the frequency of the agmatine capsules was six capsules daily (i.e., 2,700 mg per day). […] Participant 1 eliminated acetaminophen after six weeks, and participant 2 eliminated acetaminophen after eight weeks of treatment. Thereafter, the participants were taking only agmatine and reduced the quantity of agmatine by one third (i.e., a regimen of 1,800 mg per day).

Series [2] relates to bilateral knee osteoarthritis. The series is described as follows: Agmatine Administration Case 2: consecutive self-treatment with acetaminophen, GCM formulation and agmatine (VAS, WOMAC). In kind it is in vivo, human. Particulars: agmatine taken with acetaminophen and with acetaminophen/GCM formulation. From the text:
In a second study, four participants had bilateral symptoms of mild-to-moderate chronic, frequent knee pain typical of knee osteoarthritis according to a WOMAC Index score range of >25 and <100. They are compared in Table 2. Participants began taking acetaminophen (as TYLENOL®) as needed over the course of the symptom duration: Referring to FIG. 1, the four participants self-treated consecutively as follows: starting with Acetaminophen (as TYLENOL®, considered a standard drug treatment) used as a rescue medication for the duration of their symptoms for 4 to 6 months, followed by a sixty-day treatment period with acetaminophen plus a GCM formulation (i.e., glucosamine HCl, chondroitin sulfate, and methylsulfonylmethane (MSM)). The GCM formulation was followed by sixty-day period using a combination comprising acetaminophen, the GCM formulation, and agmatine (taken as the G-AGMATINE® brand of agmatine sulfate). […] Referring to FIG. 3, changes in the WOMAC ratings are shown, expressed as a percentage of total scores, at the specified time intervals after initiation of each of the acetaminophen (labeled “acet in the figure), acetaminophen and GCM formulation, and the combination acetaminophen/GCM formulation/agmatine treatment regimens. […]

For series [3] the following is noted: humans, ingested; cited from earlier work.

Here are results for two compounds from patent US11877990B1, “Agmatine compositions for treatment of osteoarthritis” (priority 2022, dated 2024).

Molecules are shown by their SMILES.

On to `CC(=O)Nc1ccc(O)cc1` [Acetaminophen], for which the “VAS Score” value in series [1] (Participant #1, acetaminophen as needed) is on record as 6.0; in series [1] (Participant #2, acetaminophen as needed), 6.5. Moreover, the “WOMAC (% Total Score)” value in series [1] (Participant #1, acetaminophen as needed (entry two)) came to 83.3 % Total Score; in series [1] (Participant #2 (person one), acetaminophen as needed), 85.4 % Total Score.

As to `N=C(N)NCCCCN` [Agmatine], in series [2], the “Effect on improving OA symptoms (in words)” value is listed as “unexpected synergistic effect”. In series [1] (agmatine taken with acetaminophen, two participants), the “Effect on OA symptoms (in words)” value is given as “dramatic improvement in OA symptoms”. Moreover, the apparent blood half-life result in series [3] was “about two”.
